Assay results published in patent publication US10370372B2, “Fused pyrimidine compound or salt thereof” (TAIHO PHARMACEUTICAL CO., LTD., priority 2015, dated 2019).
pIC50: −log10 of the molar value. Like-named read-outs stand apart in the source and are kept apart here.

Key:
Format in all cases: cell-based
human androgen receptor = target: T1, human androgen receptor (Homo sapiens, UniProt P10275); test: Antagonist activity for AR: MMTV-luc reporter transcription in COS-7 cells transfected with human AR, stimulated with DHT
T1 construct: expressed in transfected cells; host or cells: COS-7 cells (ATCC)
T1 sequence (P10275 1-920): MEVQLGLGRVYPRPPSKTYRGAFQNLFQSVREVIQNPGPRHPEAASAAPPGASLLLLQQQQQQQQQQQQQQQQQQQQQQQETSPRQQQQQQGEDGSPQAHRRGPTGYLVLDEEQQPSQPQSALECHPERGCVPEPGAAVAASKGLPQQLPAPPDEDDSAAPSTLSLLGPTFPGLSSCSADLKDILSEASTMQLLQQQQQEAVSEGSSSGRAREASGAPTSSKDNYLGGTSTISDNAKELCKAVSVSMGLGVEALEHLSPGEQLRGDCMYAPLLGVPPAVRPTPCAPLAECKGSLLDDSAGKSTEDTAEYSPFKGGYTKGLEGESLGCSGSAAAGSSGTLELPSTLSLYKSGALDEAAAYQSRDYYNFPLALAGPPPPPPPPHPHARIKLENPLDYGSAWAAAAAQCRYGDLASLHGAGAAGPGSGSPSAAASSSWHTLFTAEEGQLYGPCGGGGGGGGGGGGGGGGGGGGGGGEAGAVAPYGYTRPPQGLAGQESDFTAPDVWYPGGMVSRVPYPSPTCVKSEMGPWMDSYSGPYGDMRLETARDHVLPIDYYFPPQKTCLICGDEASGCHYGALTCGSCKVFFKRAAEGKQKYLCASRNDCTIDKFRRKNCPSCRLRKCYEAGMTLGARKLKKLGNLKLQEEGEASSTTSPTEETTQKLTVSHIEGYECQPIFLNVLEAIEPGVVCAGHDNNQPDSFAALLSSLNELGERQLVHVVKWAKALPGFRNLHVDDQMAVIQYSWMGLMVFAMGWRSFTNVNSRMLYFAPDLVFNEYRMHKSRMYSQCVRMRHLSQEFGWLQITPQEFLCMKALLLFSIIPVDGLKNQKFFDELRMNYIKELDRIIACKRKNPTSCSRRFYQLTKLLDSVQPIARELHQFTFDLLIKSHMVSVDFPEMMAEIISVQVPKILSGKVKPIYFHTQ
Description: Antagonist activity for AR was evaluated according to the following method. COS-7 cells (ATCC) were transfected with pMMTV-luc vector (reporter plasmid having, as an androgen response element, […] long terminal repeat) and pEX-hAR vector (human androgen receptor expression vector: which expresses human AR gene under control of CMV promoter) by using Nucleofector (registered trademark) Kit R (Lonza) as a transfection reagent and Amaxa (Lonza). The COS-7 cells obtained after transfection were seeded in a clear bottom 96 well microplate (BD) at 1.5×10^4/well with phenol red free RPMI1640 containing 10% charcoal-treated fetal bovine serum (hereinbelow, DCC-FBS) (hereinbelow, the medium is referred to as an evaluation medium), and then cultured overnight. […] Then, the transcription activity value of the reporter plasmid was measured. The transcription activity was measured by using Bright-Glo™ Luciferase Assay System (Promega).

[1] = system: Human prostate cancer cells LNCaP; test: Inhibitory activity on androgen-dependent proliferation of prostate cancer cells; conditions: 1 nmol/L DHT, 72 hours, Cell Counting Kit-8, read-out: Proliferation inhibition concentration GI50 value
Description: Human prostate cancer cells LNCaP (Non-Patent Literature 5) having […] androgen receptor gene were seeded in a clear bottom 96 well microplate (BD) at 4.0×10^3/well with phenol red free RPMI1640 containing 5% DCC-FBS (hereinbelow, the medium is referred to as an evaluation medium), and then cultured overnight. […] Then, the number of viable cells was measured. The number of viable cells was measured by using Cell Counting Kit-8 (DOJINDO LABORATORIES).

[2] = system: AR positive human prostate cancer cells VCaP; test: Agonist activity for AR: cell proliferation rate of VCaP cells; conditions: 5-10000 nmol/L, 72 hours, relative to evaluation medium only, more than 10% = agonist activity
Description: Then, the number of viable cells was measured (test group). As a control, the cells were cultured after being added with the evaluation medium only, and the number of viable cells was measured (control group). The number of viable cells was measured by using CellTiter-Glo™ Luminescent Cell Viability Assay (Promega). From the measured number of viable cells, cell proliferation rate with respect to the compound of Examples or the compound of Comparative Examples was calculated based on the number of viable cells measured in the case of using the evaluation medium only. Cell proliferation rate (%)=(Number of viable cells in test group−Number of viable cells in control group)/(Number of viable cells in control group)×100
By considering an error in the number of viable cells measured in the case of using the evaluation medium only, when the cell proliferation rate was more than 10% at any concentration of the 8 concentrations which had been evaluated, it was determined to have an agonist activity for AR.

AR expression in LNCaP = test: Activity of reducing expression level of androgen receptor (Western blotting in LNCaP); conditions: Homo sapiens, 48 h, read-out: AR expression reducing activity
Description: AR positive human prostate cancer cells LNCaP were seeded in a 6 well microplate (BD) at 3.5×10^5/well with RPMI1640 containing 5% FBS (hereinbelow, the medium is referred to as an evaluation medium), and then cultured overnight. […] After culture for 48 hours, the medium was removed and the cells were washed with PBS and added with 0.1 mL of Lysis buffer (M-PER added with Protease Inhibitor Cocktail), followed by keeping at 4° C. for 20 minutes. After cell lysis, the cell solution was centrifuged to recover the supernatant as cell lysate. […] The antibody-reacting band (anti AR receptor) was quantified by LAS Imaging System (FUJIFILM) using Super Signal West Dura Substrate (Thermo Scientific) as a detection reagent.
When the AR expression reducing activity is 50% or more, it is described as “reduced”.

Structure (SMILES) | pIC50 (human androgen receptor) | GI50 [1] | Cell proliferation rate (%) [2] | inhibition at 10 µM (AR expression in LNCaP) | pIC50 (human androgen receptor; COS-7 cells with pMMTV-luc and pEX-hAR, 1 nmol/L DHT, 24 hours, read-out: AR antagonist IC50)
CC(=O)N1CCN(CCCOc2ccc(Nc3ncnc4c3CCN(c3ccc(C#N)c(Cl)c3)C4)cc2C(F)(F)F)CC1 [Example 43, 4-(4-((4-(3-(4-acetylpiperazin-1-yl)propoxy)-3-(trifluoromethyl)phenyl)amino)-5,6-dihydropyrido[3,4-d]pyrimidin-7(8H)-yl)-2-chlorobenzonitrile] | 6.52 | 380 nM | 8.4% | > 50% | 
COc1ccc(Nc2nc(C#N)nc3c2CCN(c2ccc(C#N)c(C(F)(F)F)c2)C3)cc1 [Example 47, 7-(4-Cyano-3-(trifluoromethyl)phenyl)-4-((4-methoxyphenyl)amino)-5,6,7,8-tetrahydropyrido[3,4-d]pyrimidine-2-carbonitrile] | 6.15 | 450 nM | −1.7% | > 50% | 
COc1ccc(Nc2nc(C)nc3c2CCN(c2ccc(C#N)c(C(F)(F)F)c2)C3)cc1 [Example 48, 4-(4-((4-Methoxyphenyl)amino)-2-methyl-5,6-dihydropyrido[3,4-d]pyrimidin-7(8H)-yl)-2-(trifluoromethyl)benzonitrile] |  | 610 nM | −1.6% | > 50% | 6.00
